Source: patent US20100227853A1, “INHIBITORS OF CYCLIC AMP PHOSPHODIESTERASES” (Trustees of Boston College, priority 2008, published 2010)

What was measured:
[1] = biological target: T1, PDE4B3 (Mus musculus, UniProt Q8VBU5); experiment: 5FOA growth assay in fission yeast strain expressing PDE4B3; assay type: cell-based, Murine; conditions: 20 uM
T1 construct: targets used in the assays are full-length proteins (as opposed to simply the catalytic domain); expressed in transfected cells; host or cells: Schizosaccharomyces pombe, PDE gene integrated in place of cgs2
T1 sequence (Q8VBU5 1-721): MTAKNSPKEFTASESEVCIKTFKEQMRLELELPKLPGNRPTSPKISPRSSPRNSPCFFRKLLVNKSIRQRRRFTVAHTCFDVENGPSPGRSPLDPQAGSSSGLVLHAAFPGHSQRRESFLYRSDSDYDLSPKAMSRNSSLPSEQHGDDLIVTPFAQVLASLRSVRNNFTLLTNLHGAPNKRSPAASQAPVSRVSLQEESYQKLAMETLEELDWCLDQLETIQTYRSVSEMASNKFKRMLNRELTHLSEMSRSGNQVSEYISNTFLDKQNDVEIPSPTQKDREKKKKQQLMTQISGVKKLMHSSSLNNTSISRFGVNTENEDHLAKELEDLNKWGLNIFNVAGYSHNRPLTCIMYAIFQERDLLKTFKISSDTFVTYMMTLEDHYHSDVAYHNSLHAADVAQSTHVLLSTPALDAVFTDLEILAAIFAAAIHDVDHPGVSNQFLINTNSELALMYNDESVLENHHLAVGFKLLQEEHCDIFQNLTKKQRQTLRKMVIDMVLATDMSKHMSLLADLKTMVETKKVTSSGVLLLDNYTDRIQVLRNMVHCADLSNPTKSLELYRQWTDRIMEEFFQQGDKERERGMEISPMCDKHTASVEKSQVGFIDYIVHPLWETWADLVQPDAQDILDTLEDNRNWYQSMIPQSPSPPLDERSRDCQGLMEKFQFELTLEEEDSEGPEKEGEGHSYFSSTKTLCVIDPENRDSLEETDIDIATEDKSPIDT
Outline: (§1)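 Fission yeast strains carrying mouse PDE4A1 or PDE4B3 and an fbp1-ura4 reporter were pregrown in EMM with 0.5–2.5 mM cAMP, then seeded at 0.5–4×10^5 cells/ml in 5FOA medium with compound. Growth was read as OD600 after 48 h at 30° C; composite Z scores were derived.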

[2] = tested on: PDE4A, PDE4B, PDE4D, PDE7A, PDE7B, PDE8A, PDE3A; experiment: Summary of PDE inhibitor profile; set-up: key to PDE inhibitor profile (Table 17): (1): Strong PDE4A, PDE4B inhibitor; (2): Strong PDE4A inhibitor; (3): Strong PDE4B, moderate PDE4A inhibitor; (4): Moderate PDE4A, PDE4B inhibitor; (5): Moderate PDE4B inhibitor; key to inhibitor class, Table 15: (1): Strong PDE4A5 inhibitor; (2): Strong PDE4A, 4B inhibitor; Moderate PDE4D inhibitor; (3): Strong PDE4A. 4B inhibitor; (4): Strong PDE4A, 4B, PDE7A inhibitor: Weak PDE4D inhibitor; key to inhibitor class, Table 16: (1): Weak PDE7A inhibitor; (2): Strong PDE7A inhibitor; (3): Lillte/no activity under conditions used; (4): Weak PDE4A inhibitor; conditions: for PDE inhibitor profile (Table 17): overall classification, Table 17 footnotes
[3] = biological target: T2, PDE4A1 (Mus musculus, UniProt O89084); experiment: 5FOA growth assay (high throughput screen, ED50) in fission yeast strain expressing PDE4A1; assay type: cell-based; conditions: 20 uM; PDE 4A1
T2 construct: targets used in the assays are full-length proteins (as opposed to simply the catalytic domain); expressed in transfected cells; host or cells: Schizosaccharomyces pombe, PDE gene integrated in place of cgs2
T2 sequence (O89084 1-610 isoform O89084-2): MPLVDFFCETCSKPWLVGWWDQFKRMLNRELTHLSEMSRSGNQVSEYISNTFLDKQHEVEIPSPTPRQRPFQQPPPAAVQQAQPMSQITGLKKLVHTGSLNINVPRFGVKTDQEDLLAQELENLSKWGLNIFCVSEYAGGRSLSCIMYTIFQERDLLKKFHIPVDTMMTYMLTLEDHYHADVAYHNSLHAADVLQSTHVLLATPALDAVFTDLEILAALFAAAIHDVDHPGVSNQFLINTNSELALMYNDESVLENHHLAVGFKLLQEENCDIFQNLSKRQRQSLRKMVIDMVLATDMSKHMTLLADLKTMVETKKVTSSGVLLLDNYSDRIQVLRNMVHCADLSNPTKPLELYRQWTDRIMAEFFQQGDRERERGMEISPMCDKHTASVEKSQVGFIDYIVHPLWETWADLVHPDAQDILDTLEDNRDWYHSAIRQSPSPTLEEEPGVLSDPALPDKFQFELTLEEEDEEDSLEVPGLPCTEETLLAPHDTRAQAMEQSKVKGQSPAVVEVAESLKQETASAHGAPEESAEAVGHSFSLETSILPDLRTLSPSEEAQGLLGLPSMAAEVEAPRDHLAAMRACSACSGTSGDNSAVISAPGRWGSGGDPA
Outline: as §1

[4] = tested on: U937 cells; experiment: TNF alpha release by LPS-treated U937 cells; assay type: cell-based; conditions: for TNF alpha, % vehicle control: 10 uM cmpd, 0 uM BC30
[5] = biological target: PDE7A (Homo sapiens, UniProt Q13946); experiment: 5FOA growth assay in fission yeast strain expressing PDE7A; assay type: cell-based; set-up: targets used in the assays are full-length proteins (as opposed to simply the catalytic domain); expressed in transfected cells; host or cells: Schizosaccharomyces pombe, PDE gene integrated in place of cgs2; conditions: unit not given
Sequence of PDE7A (Q13946 whole entry, the tested form may be a part): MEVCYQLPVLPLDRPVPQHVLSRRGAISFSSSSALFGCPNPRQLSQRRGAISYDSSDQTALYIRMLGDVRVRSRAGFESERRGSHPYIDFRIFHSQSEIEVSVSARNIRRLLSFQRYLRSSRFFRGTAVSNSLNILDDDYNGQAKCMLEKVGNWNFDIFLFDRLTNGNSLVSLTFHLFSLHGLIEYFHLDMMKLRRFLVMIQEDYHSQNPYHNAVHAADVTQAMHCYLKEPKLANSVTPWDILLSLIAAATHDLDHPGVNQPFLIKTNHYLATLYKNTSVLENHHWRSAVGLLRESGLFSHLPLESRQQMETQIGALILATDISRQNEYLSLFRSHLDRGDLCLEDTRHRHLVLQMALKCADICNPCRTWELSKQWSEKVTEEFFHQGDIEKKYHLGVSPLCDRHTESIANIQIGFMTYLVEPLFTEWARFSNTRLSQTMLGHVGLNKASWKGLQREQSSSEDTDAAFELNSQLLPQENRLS
Description: PDE inhibition allows growth in 5FOA medium as measured by optical density after 48 hours incubation at 30° C. Compound BC12 and six structural analogs were tested for growth stimulation.
Cells were pregrown in EMM medium [MP Biomedicals (Solon, Ohio), 3% glucose, filter-sterilized to avoid carmelization, which would introduce variability into the optical density of the medium] containing from 0 mM to 2.5 mM cAMP (or either 0.5 mM or 1.0 mM cGMP). This was to repress expression of the fbp1-ura4 reporter prior to exposure of cells to 5FOA medium. Cells were grown at 30° C. to exponential phase (approximately 10^7 cells/ml). Cells were collected by centrifugation and resuspended in 5FOA medium, and 25 μl were transferred to 384-well microtiter dishes (untreated, with flat clear bottoms) that had been pre-filled with 25 μl 5FOA medium and pre-pinned with 100 nl of compounds (stock solutions were generally 10 mM). Starting cell concentrations ranged from 0.5×10^5 to 4×10^5 cells/ml depending on the screening strain. […] Other positive control dishes contained 5 mM cAMP in the 5FOA medium for PDEs that lack appropriate control compounds. Cultures were grown for 48 hours at 30° C., sealed in an airtight container with moist paper towels to prevent evaporation. Optical densities (OD600) of cultures were measured using a microplate reader. Bioinformatic analysis of the results to determine composite Z scores was performed as previously described (1, 3).

CCn1c2ccccc2c2nc3ccccc3nc21 [1422, G02]
1 Assay (20 uM) 4B3 ([1]; PDE 4B3): 103.69 ND ND ND ND | PDE inhibitor profile (Table 17) [2]: 1422, G02 (1) | 1 Assay (20 uM) 4A1 [3]: 70.89 ND ND ND ND

CC(C)n1c2ccccc2c2nc3ccccc3nc21 [1422, I02]
1 Assay (20 uM) 4B3 ([1]; PDE 4B3): 99.04 ND ND ND ND | PDE inhibitor profile (Table 17) [2]: 1422, I02 (1) | 1 Assay (20 uM) 4A1 [3]: 56.62 ND ND ND ND

CCCn1c2ccccc2c2nc3ccccc3nc21 [1422, K02]
1 Assay (20 uM) 4B3 ([1]; PDE 4B3): 115.27 ND ND ND ND | PDE inhibitor profile (Table 17) [2]: 1422, K02 (1) | 1 Assay (20 uM) 4A1 [3]: 72.21 ND ND ND ND

CC(C)Cn1c2ccccc2c2nc3ccccc3nc21 [1422, M02]
1 Assay (20 uM) 4B3 ([1]; PDE 4B3): 86.04 ND ND ND ND | PDE inhibitor profile (Table 17) [2]: 1422, M02 (2) | 1 Assay (20 uM) 4A1 [3]: 40.53 ND ND ND ND

C=CCn1c2ccccc2c2nc3ccccc3nc21 [1427, P20]
1 Assay (20 uM) 4B3 ([1]; PDE 4B3): 103.46 ND ND ND ND | PDE inhibitor profile (Table 17) [2]: 1427, P20 (3) | 1 Assay (20 uM) 4A1 [3]: 31.38 ND ND ND ND

O=C(O)Cn1c2ccc(Cl)cc2c2nc3ccccc3nc21 [1429, L06]
1 Assay (20 uM) 4B3 ([1]; PDE 4B3): 41.77 ND ND ND ND | PDE inhibitor profile (Table 17) [2]: 1429, L06 (4) | 1 Assay (20 uM) 4A1 [3]: 29.15 ND ND ND ND

Cc1ccc([N+](=O)[O-])cc1S(=O)(=O)N(C)C [BRL]
TNF alpha (EtoH = 100.0) ([4]; 3 HOURS): 92.5 | TNF ([4]; 3 HOURS, high BRL): 4565 pg/mL | TNF, % EtOH cntrl ([4]; 3 HOURS, high BRL): 94.5% | TNF ([4]; 3 HOURS, low BRL): 4491 pg/mL | TNF, % EtOH cntrl ([4]; 3 HOURS, low BRL): 93.0% | TNF alpha (EtoH = 100.0) ([4]; 20 HOURS): 102.6 | TNF ([4]; 20 HOURS, high BRL): 13111 pg/mL | TNF, % EtOH cntrl ([4]; 20 HOURS, high BRL): 95.8% | TNF ([4]; 20 HOURS, low BRL): 12718 pg/mL | TNF, % EtOH cntrl ([4]; 20 HOURS, low BRL): 92.9%

COC(=O)C1=C(C)N(c2cccc(C)c2)C(=O)/C1=C\c1cccs1 [Compound 27-5]
inhibitor class, Table 15 [2]: 27-5 (2)

COC(=O)C1=C(C)N(c2ccc(F)cc2)C(=O)/C1=C\c1cccs1 [Compound 27-6]
inhibitor class, Table 15 [2]: 27-6 (4)

COC(=O)C1=C(C)N(c2cccc(C(F)(F)F)c2)C(=O)/C1=C\c1cccs1 [Compound 27-7]
inhibitor class, Table 15 [2]: 27-7 (3)

COC(=O)C1=C(C)N(c2ccccc2Cl)C(=O)/C1=C\c1cccs1 [Compound 27-8]
inhibitor class, Table 15 [2]: 27-8 (2)

CCOC(=O)c1sc2sc(C(=O)OCC)c(-c3ccco3)c2c1N [Compound 30-1]
1 Assay (20 uM) 4B3 [1]: 8.4406 ND ND ND ND | ED50, 7A [5]: ND ND inactive ND ND | inhibitor class, Table 16 [2]: 1441, C04 KM03459 30-1 (4)

N#Cc1sc2sc(C#N)c(-c3cccs3)c2c1N [Compound 30-2]
1 Assay (20 uM) 4B3 [1]: −0.3999 ND ND ND ND | ED50, 7A [5]: ND ND active/plateaus ND ND | inhibitor class, Table 16 [2]: 1441, G04 KM03473 30-2 (1)

N#Cc1sc2sc(C#N)c(-c3ccc(Cl)cc3)c2c1N [Compound 30-3]
1 Assay (20 uM) 4B3 [1]: 1.462 ND ND ND ND | ED50, 7A [5]: ND ND inactive ND ND | inhibitor class, Table 16 [2]: 554, N12 KM03474 30-3 (3)

CC(C)(C)c1c(C#N)sc2sc(C#N)c(N)c12 [Compound 30-4]
ED50, 7A [5]: ND ND weak activity ND ND | inhibitor class, Table 16 [2]: Maybridge: KM03484 30-4 (3)

CC(C)n1c2ccc(Cl)cc2c2nc3ccccc3nc21 [Compound 35]
TNF ([4]; 3 HOURS): 4383 pg/mL | TNF, % EtOH cntrl ([4]; 3 HOURS): 90.7% | TNF ([4]; 20 HOURS): 11728 pg/mL | TNF, % EtOH cntrl ([4]; 20 HOURS): 85.7% | TNF alpha, % vehicle control ([4]; after 3 h.): 95.8% | TNF alpha, % vehicle control ([4]; after 20 h.): 66.1% | PDE inhibitor profile (Table 17) [2]: 35 (1)
